Patent US12485121B2, “Antiviral agents for the treatment and prevention of HIV infection” (Pharmasyntez, Joint Stock Company, priority 2020, dated 2025)
Values belong to the compound of their own block, whether it stands above or below them.

Tested on: HIV-1 subtype A strain 12RU 69831
Assay: Inhibition of HIV-1 reproduction / protection of infected MT-4 cells (living cell concentration, p24 production)
Format: cell-based
Settings: Human immunodeficiency virus 1, MT4, MT-4 cells infected with HIV-1 at a constant virus dose of 300 CCID50; read-out: Activity against HIV-1 12RU 69831 strain (subtype A)
Method: Evaluation of HIV reproduction inhibition/protection of human cells by anti-HIV products of the present invention was conducted by measuring change in living cells concentration in experimental wells with MT-4 cells infected with HIV-1, as well as by the production of viral protein p24 with adding different concentrations of compounds according to the present invention. Antiviral activity of products against HIV-1 subtype A strain 12RU 69831 was determined, when the cell culture was infected with a constant dose of virus, corresponding to 300 CCID50.

SMILES: Cc1cc(C#N)cc(C)c1Oc1nc(Nc2ccc(C#N)cc2)nc2c1CCN(Cc1cccn1C)CC2 [BB0274074]
IC50: 83.3 µM

SMILES: Cc1cc(C#N)cc(C)c1Oc1nc(Nc2ccc(C#N)cc2)nc2c1CCN(Cc1ccc(O)cc1)CC2 [BB0274075, 4-((2-((4-Cyanophenyl)amino)-7-(4-hydroxybenzyl)-6,7,8,9-tetrahydro-5H-pyrimido[4,5-d]azepine-4-yl)oxy)-3,5-dimethylbenzonitrile]
IC50: 5.8 µM

SMILES: COCC(C)N1CCc2nc(Nc3ccc(C#N)cc3)nc(Oc3c(C)cc(C#N)cc3C)c2CC1 (stereo not shown) [BB0274080]
IC50: 0.414 µM

SMILES: Cc1cc(C#N)cc(C)c1Oc1nc(Nc2ccc(C#N)cc2)nc2c1CCN(CC#N)CC2 [BB0274095, 4-((7-(cyanomethyl)-2-((4-cyanophenyl)amino)-6,7,8,9-tetrahydro-5H-pyrimido[4,5-d]azepine-4-yl)oxy)-3,5-dimethylbenzonitrile]
IC50: 11.3 µM

SMILES: Cc1cc(C#N)cc(C)c1Oc1nc(Nc2ccc(C#N)cc2)nc2c1CN(C(=O)C1CCCN1C(=O)OC(C)(C)C)CC2 (stereo not shown) [BB0274097, Tert-butyl 2-(4-(4-cyano-2,6-dimethylphenoxy)-2-((4-cyanophenyl)amino)-5,6,7,8-tetrahydropyrido[4,3-d]pyrimidine-6-carbonyl)pyrrolidine-1-carboxylate]
IC50: 664 µM

SMILES: Cc1cc(C#N)cc(C)c1Oc1nc(Nc2ccc(C#N)cc2)nc2c1CN(C(=O)C1CNC1)CC2 [BB0274099, 4-((6-(Azetidine-3-carbonyl)-2-((4-cyanophenyl)amino)-5,6,7,8-tetrahydropyrido[4,3-d]pyrimidine-4-yl)oxy)-3,5-dimethylbenzonitrile]
IC50: 0.152 µM

SMILES: Cc1cc(C#N)cc(C)c1Oc1nc(Nc2ccc(C#N)cc2)nc2c1CN(C(=O)[C@H](C)NC(=O)OC(C)(C)C)CC2 [BB0274101, (S)-Tert-butyl (1-(4-(4-cyano-2,6-dimethylphenoxy)-2-((4-cyanophenyl)amino)-7,8-dihydropyrido[4,3-d]pyrimidine-6(5H)-yl)-1-oxopropane-2-yl)carbamate]
IC50: 8.8 µM

SMILES: Cc1cc(C#N)cc(C)c1Oc1nc(Nc2ccc(C#N)cc2)nc2c1CN(C(=O)[C@H](C)N)CC2 [BB0274102, (S)-4-((6-(2-Aminopropanoyl)-2-((4-cyanophenyl)amino)-5,6,7,8-tetrahydropyrido[4,3-d]pyrimidine-4-yl)oxy)-3,5-dimethylbenzonitrile]
IC50: 0.00341 µM

SMILES: Cc1cc(C#N)cc(C)c1Oc1nc(Nc2ccc(C#N)cc2)nc2c1CN(C(=O)[C@@H](N)Cc1ccccc1)CC2 [BB0274111, (S)-4-((6-(2-Amino-3-phenylpropanoyl)-2-((4-cyanophenyl)amino)-5,6,7,8-tetrahydropyrido[4,3-d]pyrimidine-4-yl)oxy)-3,5-dimethylbenzonitrile]
IC50: 533 µM

SMILES: CSCCC(NC(=O)OC(C)(C)C)C(=O)N1CCc2nc(Nc3ccc(C#N)cc3)nc(Oc3c(C)cc(C#N)cc3C)c2C1 (stereo not shown) [BB0274120, Tert-butyl (1-(4-(4-cyano-2,6-dimethylphenoxy)-2-((4-cyanophenyl)amino)-7,8-dihydropyrido[4,3-d]pyrimidine-6(5H)-yl)-4-(methylthio)-1-oxobutane-2-yl)carbamate]
IC50: 108 µM

SMILES: Cc1cc(C#N)cc(C)c1Oc1nc(Nc2ccc(C#N)cc2)nc2c1CN(C(=O)C(N)Cc1cn[nH]c1)CC2 (stereo not shown) [BB0274121, 4-((6-(2-Amino-3-(1H-pyrazole-4-yl)propanoyl)-2-((4-cyanophenyl)amino)-5,6,7,8-tetrahydropyrido[4,3-d]pyrimidine-4-yl)oxy)-3,5-dimethylbenzonitrile]
IC50: 18.7 µM

SMILES: Cc1cc(C#N)cc(C)c1Oc1nc(Nc2ccc(C#N)cc2)nc2c1CN(C(=O)C(Cc1cnn(C(=O)OC(C)(C)C)c1)NC(=O)OC(C)(C)C)CC2 (stereo not shown) [BB0274122, Tert-butyl 4-(2-((tert-butoxycarbonyl)amino)-3-(4-(4-cyano-2,6-dimethylphenoxy)-2-((4-cyanophenyl)amino)-7,8-dihydropyrido[4,3-d]pyrimidine-6(5H)-yl)-3-oxopropyl)-1H-pyrazole-1-carboxylate]
IC50: 18.9 µM

SMILES: Cc1cc(C#N)cc(C)c1Oc1nc(Nc2ccc(C#N)cc2)nc2c1CN(C(=O)[C@H](N)C(C)C)CC2 [BB0274127, (R)-4-((6-(2-Amino-3-methylbutanoyl)-2-((4-cyanophenyl)amino)-5,6,7,8-tetrahydropyrido[4,3-d]pyrimidine-4-yl)oxy)-3,5-dimethylbenzonitrile]
IC50: 12.1 µM

SMILES: Cc1cc(C#N)cc(C)c1Oc1nc(Nc2ccc(C#N)cc2)nc2c1CN(C(=O)[C@H](CC(C)C)NC(=O)OC(C)(C)C)CC2 [BB0274128, (S)-Tert-butyl (1-(4-(4-cyano-2,6-dimethylphenoxy)-2-((4-cyanophenyl)amino)-7,8-dihydropyrido[4,3-d]pyrimidine-6(5H)-yl)-4-methyl-1-oxopentane-2-yl)carbamate]
IC50: 113 µM

SMILES: Cc1cc(C#N)cc(C)c1Oc1nc(Nc2ccc(C#N)cc2)nc2c1CN(C(=O)[C@@H](N)CCCCN)CC2 [BB0274131, (S)-4-((2-((4-Cyanophenyl)amino)-6-(2,6-diaminohexanoyl)-5,6,7,8-tetrahydropyrido[4,3-d]pyrimidine-4-yl)oxy)-3,5-dimethylbenzonitrile]
IC50: 0.667 µM

SMILES: CSCC[C@H](N)C(=O)N1CCc2nc(Nc3ccc(C#N)cc3)nc(Oc3c(C)cc(C#N)cc3C)c2C1 [BB0274132, 4-((2-((4-cyanophenyl)amino)-6-methionyl-5,6,7,8-tetrahydropyrido[4,3-d]pyrimidin-4-yl)oxy)-3,5-dimethylbenzonitrile]
IC50: 0.909 µM

Second part, the compound after the results:

IC50: 57.4 µM
SMILES: Cc1ccc(CN2CCc3nc(Nc4ccc(C#N)cc4)nc(Oc4c(C)cc(C#N)cc4C)c3CC2)o1 [BB0274073]

IC50: 0.046 µM
SMILES: Cc1cc(C#N)cc(C)c1Oc1nc(Nc2ccc(C#N)cc2)nc2c1CN(C(=O)C1CCCN1)CC2 (stereo not shown) [BB0274098, 4-((2-((4-Cyanophenyl)amino)-6-(pyrrolidine-2-carbonyl)-5,6,7,8-tetrahydropyrido[4,3-d]pyrimidine-4-yl)oxy)-3,5-dimethylbenzonitrile]

IC50: 33.8 µM
SMILES: Cc1cc(C#N)cc(C)c1Oc1nc(Nc2ccc(C#N)cc2)nc2c1CN(C(=O)c1cnccn1)CC2 [BB0274100, 4-((2-((4-Cyanophenyl)amino)-6-(pyrazine-2-carbonyl)-5,6,7,8-tetrahydropyrido[4,3-d]pyrimidine-4-yl)oxy)-3,5-dimethylbenzonitrile]

IC50: 228 µM
SMILES: Cc1cc(C#N)cc(C)c1Oc1nc(Nc2ccc(C#N)cc2)nc2c1CN(C(=O)[C@H](Cc1ccccc1)NC(=O)OC(C)(C)C)CC2 [BB0274103, (S)-Tert-butyl (1-(4-(4-cyano-2,6-dimethylphenoxy)-2-((4-cyanophenyl)amino)-7,8-dihydropyrido[4,3-d]pyrimidine-6(5H)-yl)-1-oxo-3-phenylpropane-2-yl)carbamate]

IC50: 0.324 µM
SMILES: Cc1cc(C#N)cc(C)c1Oc1nc(Nc2ccc(C#N)cc2)nc2c1CCN(CCN1CCOCC1)CC2 [BB0274118, 4-((2-((4-Cyanophenyl)amino)-7-(2-morpholineethyl)-6,7,8,9-tetrahydro-5H-pyrimido[4,5-d]azepine-4-yl)oxy)-3,5-dimethylbenzonitrile]

IC50: 103 µM
SMILES: Cc1cc(C#N)cc(C)c1Oc1nc(Nc2ccc(C#N)cc2)nc2c1CN(C(=O)[C@@H](CO)NC(=O)OC(C)(C)C)CC2 [BB0274119, (R)-Tert-butyl (1-(4-(4-cyano-2,6-dimethylphenoxy)-2-((4-cyanophenyl)amino)-7,8-dihydropyrido[4,3-d]pyrimidine-6(5H)-yl)-3-hydroxy-1-oxopropane-2-yl)carbamate]

IC50: 2.07 µM
SMILES: Cc1cc(C#N)cc(C)c1Oc1nc(Nc2ccc(C#N)cc2)nc2c1CN(C(=O)[C@H](N)CO)CC2 [BB0274123, (R)-4-((6-(2-Amino-3-hydroxypropanoyl)-2-((4-cyanophenyl)amino)-5,6,7,8-tetrahydropyrido[4,3-d]pyrimidine-4-yl)oxy)-3,5-dimethylbenzonitrile]

IC50: 342 µM
SMILES: Cc1cc(C#N)cc(C)c1Oc1nc(Nc2ccc(C#N)cc2)nc2c1CN(C(=O)[C@H](Cc1ccc(O)cc1)NC(=O)OC(C)(C)C)CC2 [BB0274124, (S)-Tert-butyl (1-(4-(4-cyano-2,6-dimethylphenoxy)-2-((4-cyanophenyl)amino)-7,8-dihydropyrido[4,3-d]pyrimidine-6(5H)-yl)-3-(4-hydroxyphenyl)-1-oxopropane-2-yl)carbamate]

IC50: 82.1 µM
SMILES: Cc1cc(C#N)cc(C)c1Oc1nc(Nc2ccc(C#N)cc2)nc2c1CN(C(=O)[C@@H](N)Cc1ccc(O)cc1)CC2 [BB0274125, (S)-4-((6-(2-Amino-3-(4-hydroxyphenyl)propanoyl)-2-((4-cyanophenyl)amino)-5,6,7,8-tetrahydropyrido[4,3-d]pyrimidine-4-yl)oxy)-3,5-dimethylbenzonitrile]

IC50: 45.3 µM
SMILES: Cc1cc(C#N)cc(C)c1Oc1nc(Nc2ccc(C#N)cc2)nc2c1CN(C(=O)[C@H](NC(=O)OC(C)(C)C)C(C)C)CC2 [BB0274126, (R)-Tert-butyl (1-(4-(4-cyano-2,6-dimethylphenoxy)-2-((4-cyanophenyl)amino)-7,8-dihydropyrido[4,3-d]pyrimidine-6(5H)-yl)-3-methyl-1-oxobutane-2-yl)carbamate]

IC50: 1.04 µM
SMILES: Cc1cc(C#N)cc(C)c1Oc1nc(Nc2ccc(C#N)cc2)nc2c1CN(C(=O)[C@@H](N)CC(C)C)CC2 [BB0274129, (S)-4-((6-(2-Amino-4-methylpentanoyl)-2-((4-cyanophenyl)amino)-5,6,7,8-tetrahydropyrido[4,3-d]pyrimidine-4-yl)oxy)-3,5-dimethylbenzonitrile]

IC50: 240 µM
SMILES: Cc1cc(C#N)cc(C)c1Oc1nc(Nc2ccc(C#N)cc2)nc2c1CN(C(=O)[C@H](CCCCNC(=O)OC(C)(C)C)NC(=O)OC(C)(C)C)CC2 [BB0274130, (S)-Di-tert-butyl (6-(4-(4-cyano-2,6-dimethylphenoxy)-2-((4-cyanophenyl)amino)-7,8-dihydropyrido[4,3-d]pyrimidine-6(5H)-yl)-6-oxohexane-1,5-diyl)dicarbamate]
